How the values were obtained:
FF-Jc1 reporter virus = experiment: HCV cell entry, FF-Jc1 reporter virus in Huh-7.5 cells (FIG. 9); format: cell-based; conditions: Hepatitis C virus, Huh7.5
Method: FIG. 9: Comparison of flavones 13, 14 and 15. Huh-7.5 cells were seeded in 12-well plates and infected for 4 h with FF-Jc1 reporter virus +/−inhibitor (ranging from 0-100 μM final concentration). 72 h after infection, the cells were lysed and the reporter activity measured. The mean values of 6 measurements are shown in the graph. Fluorine analogues of flavone 13, flavones 14 (BJ751/1) and 15 (BJ755-3 I), inhibit HCV cell entry with 8-10-fold increased effects compared to those of the flavone 13.

SA13 (GT5a) = experiment: Luciferase infection assay, chimeric reporter virus SA13/5a/R2a in Huh7-Lunet/CD81 cells; format: cell-based, HCV; conditions: Hepatitis C virus, Huh-7, 72 h
[1] = system: subgenomic JFH1 luciferase replicon; experiment: HCV RNA translation and replication, subgenomic luciferase replicon in Huh7-Lunet/CD81 cells; format: cell-based; conditions: up to a dose of 10 μM, 72 h post transfection
Method: (A) Huh7-Lunet/CD81 cells were transfected with the subgenomic luciferase replicon depicted at the top. Drugs were added 4 h post transfection and the level of HCV RNA translation and RNA replication was quantified by luciferase assays 72 h post transfection. Mean values of three independent experiments each with quadruplicate measurements including the standard deviation are shown. (B) Cells were transfected with the Jc1 chimera depicted above and drugs were added 4 h later. HCV virus release in the presence or absence of given compounds was determined by quantification of intracellular and extracellular core protein levels using a core-specific ELISA. Mean values of three independent experiments with single measurements including the error range are given. (C) Huh7-Lunet/CD81 cells were inoculated with Luc-Jc1 reporter viruses prepared in the absence of drugs. […] Infectivity was determined 72 h later by luciferase assays and compared to DMSO-treated controls. […]
To characterize the antiviral effect of BJ486K, the impact of BJ486K on the steps of HCV RNA translation and replication was assessed. To this end, Huh7-Lunet/CD81 cells were transfected with a subgenomic JFH1 luciferase replicon and RNA replication was monitored 72 h later by luciferase assays. […]

Con1/C3-HCV = experiment: Infection of primary human hepatocytes, focus-formation assay; format: cell-based; conditions: Hepatitis C virus, genotype 1b, Hepatocyte, 72 h
Method: FIG. 4: BJ486K is not affected by viral resistance towards a SR-BI-targeting compound, inhibits HCV of different genotypes and prevents infection of primary human hepatocytes Huh7-Lunet/CD81 cells were inoculated with Luc-Jc1 or Luc-Jc1/E2/G451R reporter viruses in the presence of increasing doses of (A) ITX 5061 or (B) BJ486K. Cells were lysed 72 h later. Luciferase activity was determined and is expressed relative to control infections conducted in the presence of DMSO. Mean values of four independent experiments each with quadruplicate measurements including the standard deviation are shown. […] Luciferase activity was determined 72 h later and is expressed relative to infections in the presence of DMSO. […] The inhibition of HCV infection was assessed by focus-formation assay and is expressed as % inhibition relative to DMSO-treated cells. […]
Normal-appearing liver tissue from patients seronegative for HCV, hepatitis B virus, and human immunodeficiency virus (HIV) was obtained from adult patients undergoing partial hepatectomy for the therapy of metastases. […] Three days later, infectivity titers in culture supernatants were determined by focus-formation assay as previously described by (Pene et al., Journal of Viral Hepatitis 2009;16:705-15). […]

COc1ccc(-c2cc(=O)c3c(O)c(O)c(OC)cc3o2)cc1 [BJ486K, 5,6-Dihydroxy-7-methoxy-2-(4-methoxy-phenyl)-chromen-4-one]
EC50 (FF-Jc1 reporter virus): ~2 µM | IC50 (SA13 (GT5a)): 1.39 µM | IC90 (SA13 (GT5a)): 5.33 µM | luciferase activity (HCV RNA translation and replication) [1]: not changed | IC50 (Con1/C3-HCV): ~10 µM
